From ChEMBL document CHEMBL1139944, “Synthesis and evaluation of new difluoromethyl azoles as antileishmanial agents” (Eur J Med Chem, 2007)

System: Leishmania amazonensis
Assay: Antileishmanial activity against Leishmania amazonensis promastigote by MTT method
Type: functional, organism-based

Going from `Cc1ncc(C(F)F)n1-c1ccc(Cl)cc1` to `FC(F)c1cn(-c2cccc(Cl)c2)nn1`, the IC50 rises from 1700 nM to 2600 nM (1.5-fold). The first is the more potent here.

For `O=Cc1cn(-c2cccc(Cl)c2)nn1`, the IC50 was 2800 nM.
